Reference: publication PMC5064002, “Sintokamide A Is a Novel Antagonist of Androgen Receptor That Uniquely Binds Activation Function-1 in Its Amino-terminal Domain” (The Journal of Biological Chemistry, 2016)
Several values for one entry are separate records, joined by “and”; a condition that tells them apart may be missing. Identical values can stand only once. Like-named read-outs stand apart in the source and are kept apart here.

Assays:
[1] = molecular target: T1, glucocorticoid receptor (GR)-α (Homo sapiens, UniProt P04150); assay: Steroid receptor specificity: GRE-luciferase reporter in LNCaP cells; assay type: cell-based; conditions: 10 μM compound, 10 nM dexamethasone, 48 h
T1 construct: expressed in transfected cells; host or cells: LNCaP
T1 sequence (P04150 1-777): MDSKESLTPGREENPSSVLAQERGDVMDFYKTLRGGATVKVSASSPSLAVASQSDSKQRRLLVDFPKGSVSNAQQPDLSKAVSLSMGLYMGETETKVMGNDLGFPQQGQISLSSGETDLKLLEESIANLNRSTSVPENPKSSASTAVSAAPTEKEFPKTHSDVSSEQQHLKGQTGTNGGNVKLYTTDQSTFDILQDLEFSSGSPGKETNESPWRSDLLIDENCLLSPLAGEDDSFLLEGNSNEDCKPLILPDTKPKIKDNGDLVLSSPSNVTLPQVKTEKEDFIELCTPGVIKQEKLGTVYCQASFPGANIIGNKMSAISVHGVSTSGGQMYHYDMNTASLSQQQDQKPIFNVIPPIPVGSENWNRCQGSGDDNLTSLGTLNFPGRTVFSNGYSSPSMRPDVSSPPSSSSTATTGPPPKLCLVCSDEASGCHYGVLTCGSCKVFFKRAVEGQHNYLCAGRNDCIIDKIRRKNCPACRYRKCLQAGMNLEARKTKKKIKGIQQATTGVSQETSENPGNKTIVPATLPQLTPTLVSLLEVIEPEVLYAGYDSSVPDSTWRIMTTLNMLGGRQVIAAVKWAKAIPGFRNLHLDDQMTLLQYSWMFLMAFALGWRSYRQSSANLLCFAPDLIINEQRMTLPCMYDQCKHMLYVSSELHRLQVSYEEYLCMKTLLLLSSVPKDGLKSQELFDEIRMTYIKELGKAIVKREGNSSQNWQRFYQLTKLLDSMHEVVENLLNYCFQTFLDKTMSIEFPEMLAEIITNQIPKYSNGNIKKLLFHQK
Protocol: LNCaP cells were transfected with the reporter plasmid PSA(6.1kb)-luciferase, PRE-luciferase, or GRE-luciferase and expression vector for progesterone receptor (PR)-β or glucocorticoid receptor (GR)-α in serum-free, phenol red-free medium using Lipofectin (Invitrogen). […] After 48 h of treatment, cells were lysed and analyzed for luciferase activities.
FIGURE 1. […] A, LNCaP cells were transfected with PSA (6.1 kb)-luciferase, PRE-luciferase, or GRE-luciferase reporters and expression vector for PRβ or GRα. […] Error bars represent mean percentage of vehicle activity ±S.E. of at least three independent experiments with triplicate wells. SINT1, 10 μM; […]; ***, p < 0.001. […]. Error bars represents mean ± S.E. of three technical replicates. […] DAPI staining indicates the location of the nucleus. Scale bars, 20 μm.

[2] = Pharmacokinetics in CD-1 mice; assay type: in vivo; conditions: single intravenous dose 50 mg/kg
Protocol: Pharmacokinetics assays were performed by NAEJA Pharmaceutical Inc. in a total of 27 CD-1 mice, which received a single intravenous SINT1 dose of 50 mg/kg of body weight. Blood samples were collected during a period of 2.5 min to 8 h postdosing from three mice per time point. Plasma concentrations of SINT1 and pharmacokinetics parameters were determined.

LNCaP95 xenografts = LNCaP95 xenografts in castrated mice; assay type: in vivo, NOD-SCID mice
Protocol: (§1) At 48 h, total RNA was isolated using a PureLink RNA Mini kit (Invitrogen). For in vivo expression, tumors were harvested 3 days after last treatment, and RNA was extracted using TRIzol. Prior to cDNA generation, 4 μg of RNA were DNase-treated using DNase I (amplification grade; Sigma-Aldrich). DNase-treated RNA was split into two tubes (+RT and −RT), and cDNA was generated using the High Capacity RNA-cDNA kit (Applied Biosystems). Once complete, both reactions were adjusted to 5 ng/μl and stored at −20 °C. Approximately 5 ng of diluted cDNA and gene-specific primers were mixed with Platinum SYBR Green qPCR SuperMix-UDG with ROX (Invitrogen). The transcripts were measured using an ABI PRISM 7900 Sequence Detection System (Invitrogen). For all quantitative RT-PCR experiments, each sample was tested in triplicate, and gene expression levels were normalized to the reference gene RPL13A. Neuron-specific enolase (ENO2) (Gene ID, 2026; pair 1) and synaptophysin (SYP) (Gene ID, 6855; pair 2) human primers were from Sigma Life Science. All other primers were described previously ([4], [9]) and purchased from Integrated DNA Technologies.
Male NOD-SCID mice bearing subcutaneous LNCaP or LNCaP95 tumors were castrated when the tumor volume reached ∼100 mm^3. Seven days after castration, animals were injected intratumorally with 30 mg/kg of body weight SINT1 or a matching volume of vehicle (DMSO) every 3 days for a total of 15 days. Animal behavior and body weight were observed throughout the study period for signs of toxicity. Tumor volumes were calculated by the formula length × width × height × 0.5236. Tumors were excised 3 days after the last injection and prepared for immunohistochemistry or gene expression.

[3] = tested on: FL-AR- and AR-V7-regulated genes; assay: AR-FL- and AR-V7-regulated gene expression (quantitative RT-PCR) in LNCaP95 cells; assay type: cell-based
Protocol: as §1

[4] = mice sets 1-3 and mean ± S.D., mean
[5] = LNCaP95, 10 μM SINT1, 1 nM R1881 48 h

CCC(=O)NC(CC(C)C(Cl)(Cl)Cl)C(=O)N1C(=O)C=C(OC)C1CC(C)C(Cl)Cl (centres unmarked) [SINT1, Sintokamide A]
GR transcriptional activity (GRE-luciferase) [1]: did not affect
Cmax ([2]; CD-1, mouse, plasma, iv, 50 mg/kg, plasma, mice sets 1-3 and mean ± S.D., read-out: Cmax): 3990 ng/mL
AUC(0-inf) ([2]; CD-1, mouse, plasma, iv, 50 mg/kg, mice sets 1-3 and mean ± S.D.): 1840 ng·h/mL
clearance ([2]; CD-1, mouse, plasma, iv, 50 mg/kg, mice sets 1-3 and mean ± S.D., read-out: Cl (plasma clearance) (converted)): 366 mL/min/kg
Vd ([2]; CD-1, mouse, plasma, iv, 50 mg/kg, mice sets 1-3 and mean ± S.D., read-out: Vd (volume of distribution)): 43.7 L/kg
half-life ([2]; CD-1, mouse, plasma, iv, 50 mg/kg, mice sets 1-3 and mean ± S.D., read-out: t½ (elimination half-life) (converted)): 1.38 h
Cmax ([2]; CD-1, mouse, plasma, iv, 50 mg/kg, read-out: Cmax in plasma): ~8 µM
Cmax ([2]; plasma, mice sets 1-3 and mean ± S.D.): 4440 ng/mL and 4030 ng/mL
Cmax ([2]; plasma, mice sets 1-3 and mean ± S.D., mean): 4150 ± 250 ng/mL
AUCinf ([2]; mice sets 1-3 and mean ± S.D.): 2370 ng·h/mL and 1510 ng·h/mL
Cl (plasma clearance) ([2]; mice sets 1-3 and mean ± S.D.): 284 mL/min/kg and 446.7 mL/min/kg
t½ (elimination half-life) ([2]; mice sets 1-3 and mean ± S.D.): 1.10 h and 1.01 h
AUCinf [2, 4]: 1900 ± 430 ng·h/mL
Cl (plasma clearance) [2, 4]: 365.5 ± 81.3 mL/min/kg
t½ (elimination half-life) [2, 4]: 1.16 ± 0.19 h
growth of LNCaP95 tumors (LNCaP95 xenografts; castrated mice, 30 mg/kg intratumorally every 3 days): significantly reduce the growth
levels of expression of ENO2 and SYP genes (neuroendocrine differentiation) (LNCaP95 xenografts; harvested LNCaP95 xenografts): no significant changes
levels of FL-AR and AR-V7 transcripts in harvested LNCaP95 xenografts (LNCaP95 xenografts; tumors harvested 3 days after last treatment): not significantly altered
androgen-induced transcript of FL-AR-regulated gene RHOU [3, 5]: exception
androgen-induced transcripts of FL-AR-regulated genes KLK3/PSA, KLK2, TMPRSS2, NKX3.1, FKBP5 and SLC1A1 [3, 5]: significantly repressed
levels of AR-V7 target gene transcripts cyclin A2, CDC20, UBE2C and CDK1 ([3]; LNCaP95, 10 μM SINT1, 48 h): significantly repressed
levels of AR-V7 transcript ([3]; LNCaP95, 10 μM SINT1, 48 h): no significant effect
levels of FL-AR mRNA ([3]; LNCaP95, 10 μM SINT1, 48 h, compared with vehicle control): did not lead to an increase
